Test results reported in PubChem BioAssay (NCI).
Several values for one entry are separate records, joined by “and”; a condition that tells them apart may be missing. Equal values may be shown once.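 Briefly, cells in 96-well plates were exposed to five compound concentrations for 48 h, and endpoints were estimated by linear interpolation. Abbreviation: GI50, concentration required for 50% inhibition of growth. Definition used: TGI = concentration required for complete inhibition of growth.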

Test system: MDA-MB-468 breast
Experiment: growth of human tumour cells (NCI), 48 h

Structure (SMILES): Cc1cc2c(-c3nc4ccccn4c3NC34CC5CC(CC(C5)C3)C4)c(O)c(O)cc2c(O)c1-c1c(C)cc2c(-c3nc4ccccn4c3NC34CC5CC(CC(C5)C3)C4)c(O)c(O)cc2c1O
- GI50: 143 nM
- TGI: 1570 nM

Structure (SMILES): Cc1cc([C@H](C)Nc2nccc(N3C(=O)OC[C@@H]3[C@H](C)F)n2)ncc1-c1ccnc(C(F)(F)F)c1
- GI50: 9500 nM
- TGI: 79600 nM

Structure (SMILES): O=c1c2ccccc2c(=O)c2c1sc1c(=O)c3ccc(O)cc3c(=O)c12
- GI50: 1520 nM
- TGI: 4000 nM

Structure (SMILES): Cc1ccc2c(C(C[N+](=O)[O-])c3ccco3)c(-c3ccccc3)[nH]c2c1 (stereo not drawn)
- GI50: 7260 nM
- TGI: 71200 nM

Structure (SMILES): Cc1nc2cc(Nc3nc(Nc4ccc(F)cc4)nc(-c4ccc(Cl)cc4)n3)ccc2n1Cc1ccccc1
- GI50: 4940 nM
- TGI: 88000 nM

Structure (SMILES): N#CC1=C(N)Oc2c(sc3c(Br)cccc23)C1c1ccc(F)cc1 (stereo not drawn)
- GI50: 333 nM
- TGI: 6410 nM

Structure (SMILES): Oc1cccc(-c2nc(N3CCOCC3)c3oc4ncccc4c3n2)c1
- GI50: 576 nM and 375 nM
- TGI: 2370 nM and 2150 nM

Structure (SMILES): Cc1cc(C(=O)Nc2cc(Nc3ncccc3-c3ncnc4nc[nH]c34)ccc2F)cc(C(C)(C)C#N)c1
- GI50: 10300 nM
- TGI: > 100000 nM

Structure (SMILES): NCCNc1nc2ccccc2c2c(=O)c3cc(F)cc(Cl)c3sc12
- GI50: 1730 nM
- TGI: 3440 nM

Structure (SMILES): CN(C)CCCNc1c2ccccc2nc2c1oc1ccc(Cl)cc12
- GI50: 2760 nM
- TGI: 11000 nM

Structure (SMILES): NC(=O)c1cc(-c2ccc3ncnc(N4CCc5cc(F)c(Cl)cc54)c3c2)cnc1N
- GI50: 397 nM
- TGI: 2040 nM

Structure (SMILES): COc1ccc(-c2nn3ncccc3c2-c2ccnc(Nc3cccc(C(F)(F)F)c3)n2)cc1
- GI50: 4620 nM
- TGI: 14100 nM

Structure (SMILES): CCn1c(-c2nonc2N)nc2c(C#CC(C)(C)O)ncc(OC[C@@H]3CCCN3)c21
- GI50: 232 nM
- TGI: 7190 nM

Structure (SMILES): CC(=O)OC1Oc2cc(C)c(C)cc2-c2oc(=O)c(-c3ccccc3)cc21 (stereo not drawn)
- GI50: 796 nM
- TGI: 43900 nM

Structure (SMILES): COc1ccc(-c2nn(-c3cccc(Cl)c3)cc2-c2cc(-c3cccs3)no2)cc1
- GI50: 2680 nM
- TGI: 12300 nM

Structure (SMILES): N#Cc1c(-c2ccc(Cl)cc2)csc1NC(=O)Nc1cccc(C(F)(F)F)c1
- GI50: 2180 nM
- TGI: 8270 nM

Structure (SMILES): CCCCCCCCCCCCNC(=O)[C@H]1CSC(c2ccsc2)N1 (stereo partly drawn)
- GI50: 846 nM
- TGI: 1630 nM

Structure (SMILES): CC[C@H](C)[C@H](NC(=O)N[C@@H](C)c1ccccc1)C(=O)N(C)[C@H](C[C@@H](OC(C)=O)c1nc(C(=O)N[C@@H](Cc2ccccc2)C[C@H](C)C(=O)OC)cs1)C(C)C
- GI50: 3600 nM
- TGI: 24900 nM

Structure (SMILES): COc1ccc(-c2nn(-c3cccc(Cl)c3)cc2/C=C2\C(=N)N(c3ccccc3)N=C2N)cc1
- GI50: 4150 nM
- TGI: 45800 nM

Structure (SMILES): CN1CCN(CCCOc2ccc3ncnc(Nc4ccc(Oc5cccc(F)c5)c(Cl)c4)c3c2)CC1
- GI50: 1060 nM
- TGI: 2530 nM

Structure (SMILES): Oc1ccc(CSc2nnc(-c3ccc(Oc4ccccc4)cc3)n2-c2ccccc2)c2cccnc12
- GI50: 180 nM
- TGI: 6810 nM

Structure (SMILES): COc1ccccc1-c1nccc(COc2ccccc2C[C@@H](Oc2ncnc3sc(-c4ccc(F)cc4)c(-c4ccc(OCCN5CCN(C)CC5)c(Cl)c4C)c23)C(=O)O)n1
- GI50: < 10 nM
- TGI: 12.1 nM

Structure (SMILES): CC(=O)c1c(Nc2ccc(F)c(F)c2F)[nH]c2c(F)cc(F)cc2c1=O
- GI50: 261 nM
- TGI: 789 nM

Structure (SMILES): O=C(Nc1nc2ccc(F)cc2s1)c1cccnc1Nc1ccc(Cl)cc1Cl
- GI50: 786 nM
- TGI: 20200 nM

Structure (SMILES): Fc1ccc(-c2cc(-c3cn[nH]c3-c3ccccn3)ccn2)cc1
- GI50: > 25000 nM
- TGI: > 25000 nM

Structure (SMILES): COc1ccc(CNC(=O)c2ccc(-c3cc(-c4nnc(C)o4)ccc3C)cc2)cc1
- GI50: 5140 nM
- TGI: 21400 nM

Structure (SMILES): CC(=O)Nc1ccc2c(c1)CN1C(=O)c3ccccc3C1=N2
- GI50: > 100000 nM
- TGI: > 100000 nM

Structure (SMILES): O=C(Nc1cccc(Cl)c1)c1cc(Cl)ccc1O
- GI50: 1750 nM
- TGI: 7230 nM

Structure (SMILES): COc1cccc(C2CC(=O)Nc3cc4c(cc32)CCC4)c1OC (stereo not drawn)
- GI50: 1830 nM
- TGI: 5450 nM

Structure (SMILES): C#CCn1cc(C=C2C(=O)NC(=S)NC2=O)c2cc(Cl)ccc21
- GI50: 2060 nM
- TGI: 5080 nM

Structure (SMILES): COC12C=C/C(=C(/C(=O)OCc3csc(SC)n3)C(=O)CCCCCCCCC3(OC)C=C/C(=C(/C(=O)OCc4cnc(SC)s4)C(=O)CCCCCCCC1)O3)O2 (stereo not drawn)
- GI50: 3560 nM
- TGI: 61300 nM

Structure (SMILES): Cc1ccc(S(=O)c2ccc([N+](=O)[O-])c3nonc23)cc1 (stereo not drawn)
- GI50: 1750 nM
- TGI: 3650 nM

Structure (SMILES): O=C1c2c(O)ccc(O)c2C(=O)c2c(NCCNCCO)ccc(NCCNCCO)c21
- GI50: 83.5 nM
- TGI: 346 nM

Structure (SMILES): COc1cc(/C=C2\C(=O)Nc3ccc(Br)cc32)cc(OC)c1OC
- GI50: 3290 nM
- TGI: > 100000 nM

Structure (SMILES): Cc1cc(Nc2cc(N3CCN(C)CC3)nc(C#Cc3ccccc3)n2)n[nH]1
- GI50: 1670 nM
- TGI: 6530 nM

Structure (SMILES): COc1ccc(-c2conc2-c2ccccc2)cc1
- GI50: 225 nM
- TGI: > 100000 nM

Structure (SMILES): NC(=O)c1c(NC(=O)c2cccc(C(F)(F)F)c2)sc2c1CCC(=O)C2
- GI50: 348 nM
- TGI: 2900 nM

Structure (SMILES): COc1ccc2nc3cc(Cl)ccc3c(Nc3ccc(O)c(CN4CCCC4)c3)c2c1
- GI50: 1850 nM
- TGI: 3650 nM

Structure (SMILES): CCOC(=O)C(=Cc1c(-c2ccccc2)[nH]c2ccccc12)C(=O)OCC
- GI50: 3100 nM
- TGI: 15400 nM

Structure (SMILES): CCCCCCCCCCCCCCCCCCNC(=O)[C@H]1CSC(c2ccc(F)c(OC)c2)N1 (stereo partly drawn)
- GI50: 1840 nM
- TGI: > 50000 nM

Structure (SMILES): O=C1c2cc3c(cc2-c2c1c1cc(F)c(F)cc1c(=O)n2C[C@H](O)CO)OCO3
- GI50: 37.9 nM
- TGI: 206 nM

Structure (SMILES): Cc1ccc(NCCNCC(O)CO)c2c(=O)c3ccccc3sc12 (stereo not drawn)
- GI50: 1390 nM
- TGI: 2860 nM

Structure (SMILES): CCc1ccc(OCc2ccccc2C(=O)Nc2ccc3nc(C)cc(N)c3c2)cc1
- GI50: 1260 nM
- TGI: 2800 nM

Structure (SMILES): NC1(C(=O)O)CSSC1
- GI50: 2100 nM
- TGI: 7890 nM
